Measured values taken from PMC10779950, “Binding Free Energy Calculation Based on the Fragment Molecular Orbital Method and Its Application in Designing Novel SHP-2 Allosteric Inhibitors” (International Journal of Molecular Sciences, 2024).
Where two headings read alike, the source gives them in different places.

Legend:
Eg5 = details: experimental binding free energy, ref Schrödinger FEP+ benchmark; cited from earlier work
SHP2^WT (1–593) = target: T1, SHP2^WT (1–593) (Homo sapiens, UniProt Q06124); assay: SHP-2 prompt fluorescence phosphatase assay (DiFMUP), SHP2^WT; type: biochemical; set-up: ΔG experiment: unit not given here; details: for pIC50: from experimental IC50; for ΔG experiment: experimental binding free energy converted from IC50; for ΔGexp: converted from IC50 with ΔGexp ≈ kBTlog IC50
T1 construct: made in house; host or cells: E. coli BL21 Star (DE3), pET30 vector
T1 sequence (Q06124 1-593): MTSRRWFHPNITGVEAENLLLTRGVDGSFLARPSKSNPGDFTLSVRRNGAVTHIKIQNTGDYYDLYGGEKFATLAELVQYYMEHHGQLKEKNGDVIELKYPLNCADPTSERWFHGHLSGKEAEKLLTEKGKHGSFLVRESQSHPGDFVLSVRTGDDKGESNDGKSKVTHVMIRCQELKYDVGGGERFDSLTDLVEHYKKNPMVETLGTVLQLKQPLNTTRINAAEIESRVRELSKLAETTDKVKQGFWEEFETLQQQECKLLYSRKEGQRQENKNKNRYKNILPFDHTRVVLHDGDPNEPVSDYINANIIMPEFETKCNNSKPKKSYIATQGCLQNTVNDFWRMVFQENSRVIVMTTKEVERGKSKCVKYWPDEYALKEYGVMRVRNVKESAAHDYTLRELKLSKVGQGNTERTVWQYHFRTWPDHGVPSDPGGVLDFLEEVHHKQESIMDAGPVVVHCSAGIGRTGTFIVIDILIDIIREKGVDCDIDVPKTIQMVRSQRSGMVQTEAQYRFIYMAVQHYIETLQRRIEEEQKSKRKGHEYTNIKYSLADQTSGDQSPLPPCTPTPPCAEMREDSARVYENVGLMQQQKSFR
Description: Briefly, the constructs were transformed into BL21 Star^TM (DE3) cells and cultured at 37 °C for 3~4 h. Subsequently, the cells with high expression of SHP2 protein were harvested after being induced by IPTG and grown overnight at 18 °C. Cell pellets were resuspended in lysis buffer (25 mM imidazole, 50 mM Tris−HCl, 500 mM NaCl, 2.5 mM MgCl2, 1 mM tris(2-carboxyethyl)phosphine (TCEP), 1 μg/mL DNase1, and complete EDTA-free protease inhibitor) and lysed using Low Temperature Ultrahigh Pressure Continuous Flow Cell Disrupter (JNBIO), followed by ultracentrifugation. The supernatant was collected. Then, the SHP2 was purified from the collected supernatant by using HisTrap HP chelation column, TEV protease, and HiTrap Q FastFlow column.
Then, the mixture was then incubated at 25 °C for 60 min. To initiate the reaction, the surrogate substrate DiFMUP (Invitrogen, cat. no. D6567, Shuzhou, China, 200 μM) was added and incubated at 25 °C for another 30 min. […] Fluorescence signal was detected using a microplate reader (Bio-Tek, Shanghai, China, Synergy2) at Ex/Em = 340/450 nm. Using control-based normalization, normalized IC50 regression curves were fitted to inhibitor dose response curves.

THR-β = assay: Experimental THR-β activity of agonists taken from Hu et al.; type: biochemical; details: Table S4, converted from the experimental value
Description: In the initial phase of our investigation, we conducted a retrospective evaluation of FMOScore’s performance concerning thyroid hormone receptor β (THR-β) agonists, using a set of 18 compounds taken from the work of Hu et al. [65]

c-Met [1] = system: c-Met; set-up: method as in earlier work; details: Schrödinger FEP+ benchmark; cited from earlier work
c-Met [2] = system: c-Met; set-up: method as in earlier work; details: FEP+ predicted ΔG from the benchmark; cited from earlier work
SYK [3] = details: experimental binding free energy, ref Schrödinger FEP+ benchmark; cited from earlier work
SYK [4] = system: SYK; set-up: method as in Schrödinger FEP+ benchmark; details: FEP+ predicted binding free energy, ref Schrödinger FEP+ benchmark; cited from earlier work
[5] = SHP-2_case sheet, designed SHP-2 inhibitors, read-out: IC50uM
[6] = SHP-2_case sheet, same IC50 restated in another unit, read-out: IC50nM
[7] = SHP2^WT, DiFMUP substrate, averages of three independent experiments, read-out: SHP-2 IC50

## Cc1ccc2c(c1)[C@H]1OCCC[C@H]1[C@H](c1ccccc1)N2 [CHEMBL1088740]
Eg5
  Exp. ΔG: -8.7 kcal/mol

## NCCN(C[C@H]1CC[C@@H]2[C@H](O1)c1cc(C(F)(F)F)ccc1N[C@H]2c1ccccc1)c1ccccc1 [CHEMBL1093087]
Eg5
  Exp. ΔG: -10.53 kcal/mol

## CN(C)CCNC(=O)NC[C@H]1CC[C@@H]2[C@H](O1)c1cc(C(F)(F)F)ccc1N[C@H]2c1ccccc1 [CHEMBL1077204]
Eg5
  Exp. ΔG: -11.05 kcal/mol

## CNC[C@H]1CC[C@@H]2[C@H](O1)c1cc(C(F)(F)F)ccc1N[C@H]2c1ccc(O)cc1 [CHEMBL1083517]
Eg5
  Exp. ΔG: -11.46 kcal/mol

## CNC[C@H]1CC[C@@H]2[C@H](O1)c1cc(C(C)(C)C)ccc1N[C@H]2c1cccs1 [CHEMBL1077227]
Eg5
  Exp. ΔG: -11.32 kcal/mol

## Nc1cc(NC2CCNC2)cnc1-c1cccc(Cl)c1Cl (stereo not drawn) [A-S3]
SHP2^WT (1–593); [5]
  IC50: 5.17 µM
SHP2^WT (1–593); SHP-2_case sheet
  pIC50: 5.286
SHP2^WT (1–593); [6]
  IC50: 5.17 µM
SHP2^WT (1–593)
  ΔG experiment: -7.208

## CNC[C@H]1CC[C@@H]2[C@H](O1)c1cc(C(F)(F)F)ccc1N[C@H]2c1ccc(F)cc1 [CHEMBL1086409]
Eg5
  Exp. ΔG: -9.87 kcal/mol

## CCN(CCO)C[C@H]1CC[C@@H]2[C@H](O1)c1cc(C(C)(C)C)ccc1N[C@H]2c1ccccc1 [CHEMBL1084935]
Eg5
  Exp. ΔG: -10.53 kcal/mol

## CC(C)c1ccc2c(c1)[C@H]1O[C@@H](CNS(=O)(=O)CCCN(C)C)CC[C@H]1[C@H](c1ccccc1)N2 [CHEMBL1084143]
Eg5
  Exp. ΔG: -11.87 kcal/mol

## CC1(N)CCN(c2cnc(-c3ccnc(Cl)c3Cl)c(N)c2)CC1 [Compound 6, 5-(4-amino-4-methylpiperidin-1-yl)-2′,3′-dichloro-[2,4′-bipyridin]-3-amine]
SHP2^WT (1–593); [7]
  IC50: 10.7 ± 0.92 µM
SHP2^WT (1–593)
  ΔGexp: -6.780 kcal/mol
THR-β
  ΔGexp: -10.257 kcal/mol
c-Met [1]
  Exp. ΔG: -12.28 kcal/mol
c-Met [2]
  FEP: -12.22 kcal/mol
SYK [3]
  Exp. ΔG: -11.69 kcal/mol
SYK [4]
  FEP: -9.59 kcal/mol

## CC(C)(C)c1ccc2c(c1)[C@H]1OCCC[C@H]1[C@H](c1ccc(O)c(F)c1)N2 [CHEMBL1078774]
Eg5
  Exp. ΔG: -10.6 kcal/mol

## CC1(N)CCN(c2cnc(-c3ccnc(Cl)c3Cl)c(N)c2)CC1 [A-S6]
SHP2^WT (1–593); [5]
  IC50: 10.7 µM
SHP2^WT (1–593); SHP-2_case sheet
  pIC50: 4.973
SHP2^WT (1–593); [6]
  IC50: 10.7 µM
SHP2^WT (1–593)
  ΔG experiment: -6.78

## Cc1ccc(C(=O)N(CCN)C[C@H]2CC[C@@H]3[C@H](O2)c2cc(C(F)(F)F)ccc2N[C@H]3c2ccccc2)cc1 [CHEMBL1084431]
Eg5
  Exp. ΔG: -9.8 kcal/mol

## CNC[C@H]1CC[C@@H]2[C@H](O1)c1cc(C(C)(C)C)ccc1N[C@H]2c1ccccc1 [CHEMBL1086410]
Eg5
  Exp. ΔG: -11.46 kcal/mol

## Nc1cc(N2CCC3(CCCC3N)CC2)cnc1Sc1cccc(Cl)c1Cl (stereo not drawn) [A-S8]
SHP2^WT (1–593); [5]
  IC50: 2.29 µM
SHP2^WT (1–593); SHP-2_case sheet
  pIC50: 5.64
SHP2^WT (1–593); [6]
  IC50: 2.29 µM
SHP2^WT (1–593)
  ΔG experiment: -7.69

## NC[C@H]1CC[C@@H]2[C@H](O1)c1cc(C(F)(F)F)ccc1N[C@H]2c1ccccc1 [CHEMBL1085666]
Eg5
  Exp. ΔG: -10.5 kcal/mol

## CN(C[C@H]1CC[C@@H]2[C@H](O1)c1cc(C(F)(F)F)ccc1N[C@H]2c1ccccc1)S(=O)(=O)CCCN [CHEMBL1084678]
Eg5
  Exp. ΔG: -11.13 kcal/mol

## CNCCS(=O)(=O)NC[C@H]1CC[C@@H]2[C@H](O1)c1cc(C(F)(F)F)ccc1N[C@H]2c1ccccc1 [CHEMBL1084677]
Eg5
  Exp. ΔG: -11.46 kcal/mol

## CN(C)CCOC(=O)NC[C@H]1CC[C@@H]2[C@H](O1)c1cc(C(F)(F)F)ccc1N[C@H]2c1ccccc1 [CHEMBL1084676]
Eg5
  Exp. ΔG: -10.71 kcal/mol

## CC1(N)CCN(c2cnc(-c3cccc(F)c3Cl)c(N)c2)CC1 [Compound 5, 5-(4-amino-4-methylpiperidin-1-yl)-2-(2-chloro-3-fluorophenyl) pyridin-3-amine]
SHP2^WT (1–593); [7]
  IC50: 15.1 ± 0.8 µM
SHP2^WT (1–593)
  ΔGexp: -6.573 kcal/mol
THR-β
  ΔGexp: -5.453 kcal/mol
c-Met [1]
  Exp. ΔG: -9.14 kcal/mol
c-Met [2]
  FEP: -8.31 kcal/mol
